# System: 922993-354-T-J3-PDC complex spheroid viability
# Experiment: Anticancer human tumor 922993-354-T-J3-PDC patient-derived endometrial carcinoma cell line growth inhibition [POLQ]
# Settings: for IC50: curve of first compound; for viability, T/C: stronger effect = lower value
# How it was run: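 Complex spheroid viability model combining PDC tumour cells with endothelial (HUVEC) and MSC stromal cells. Novobiocin, ART-558 or RP6685 were tested singly and in combination with standard and investigational anticancer drugs. Each was titrated in half-log steps from near clinical Cmax, or from 10 microM where Cmax was unknown.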
# [1] = second compound 0.0316 µM, first compound 0.0316 µM
# [2] = second compound 0.0316 µM, first compound 0.1 µM
# [3] = second compound 0.0316 µM, first compound 0.316 µM
# [4] = second compound 0.0316 µM, first compound 1 µM
# [5] = second compound 0.0316 µM, first compound 3.16 µM
# [6] = second compound 0.0316 µM, first compound 10 µM
# [7] = second compound 0.1 µM, first compound 0.0316 µM
# [8] = second compound 0.1 µM, first compound 0.1 µM
# [9] = second compound 0.1 µM, first compound 0.316 µM
# [10] = second compound 0.1 µM, first compound 1 µM
# [11] = second compound 0.1 µM, first compound 3.16 µM
# [12] = second compound 0.1 µM, first compound 10 µM
# [13] = second compound 0.316 µM, first compound 0.0316 µM
# [14] = second compound 0.316 µM, first compound 0.1 µM
# [15] = second compound 0.316 µM, first compound 0.316 µM
# [16] = second compound 0.316 µM, first compound 1 µM
# [17] = second compound 0.316 µM, first compound 3.16 µM
# [18] = second compound 0.316 µM, first compound 10 µM
# [19] = second compound 1 µM, first compound 0.0316 µM
# [20] = second compound 1 µM, first compound 0.1 µM
# [21] = second compound 1 µM, first compound 0.316 µM
# [22] = second compound 1 µM, first compound 1 µM
# [23] = second compound 1 µM, first compound 3.16 µM
# [24] = second compound 1 µM, first compound 10 µM
# [25] = second compound 3.16 µM, first compound 0.0316 µM
# [26] = second compound 3.16 µM, first compound 0.1 µM
# [27] = second compound 3.16 µM, first compound 0.316 µM
# [28] = second compound 3.16 µM, first compound 1 µM
# [29] = second compound 3.16 µM, first compound 3.16 µM
# [30] = second compound 3.16 µM, first compound 10 µM
# [31] = second compound 10 µM, first compound 0.0316 µM
# [32] = second compound 10 µM, first compound 0.1 µM
# [33] = second compound 10 µM, first compound 0.316 µM
# [34] = second compound 10 µM, first compound 1 µM
# [35] = second compound 10 µM, first compound 3.16 µM
# [36] = second compound 10 µM, first compound 10 µM
# 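Note: spheroids exposed to the agents for one week.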
# 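Throughout, for viability, T/C: 100% = DMSO vehicle control wells.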
compound,measurement,setting,value
CC1COCCN1c1cc(C2(O)CC3CCC(C2)O3)c2cnn(-c3ccn[nH]3)c2n1 (stereo not drawn) + COC1C(OC(N)=O)C(O)C(Oc2ccc3c(O)c(NC(=O)c4ccc(O)c(CC=C(C)C)c4)c(=O)oc3c2C)OC1(C)C,IC50,second compound 0.0316 µM,0.337 µM
same,IC50,second compound 0.1 µM,0.371 µM
same,IC50,second compound 0.316 µM,0.361 µM
same,IC50,second compound 1 µM,0.383 µM
same,IC50,second compound 3.16 µM,0.361 µM
same,IC50,second compound 10 µM,0.393 µM
same,"viability, T/C",[1],101%
same,"viability, T/C",[2],80.6%
same,"viability, T/C",[3],54.1%
same,"viability, T/C",[4],23.1%
same,"viability, T/C",[5],8.69%
same,"viability, T/C",[6],11.8%
same,"viability, T/C",[7],107%
same,"viability, T/C",[8],68.5%
same,"viability, T/C",[9],66.4%
same,"viability, T/C",[10],26.7%
same,"viability, T/C",[11],10.4%
same,"viability, T/C",[12],10.7%
same,"viability, T/C",[13],96%
same,"viability, T/C",[14],89.6%
same,"viability, T/C",[15],53.3%
same,"viability, T/C",[16],20.5%
same,"viability, T/C",[17],9.11%
same,"viability, T/C",[18],10.8%
same,"viability, T/C",[19],99.5%
same,"viability, T/C",[20],93.7%
same,"viability, T/C",[21],55.1%
same,"viability, T/C",[22],21.1%
same,"viability, T/C",[23],8.57%
same,"viability, T/C",[24],11.2%
same,"viability, T/C",[25],100%
same,"viability, T/C",[26],84.9%
same,"viability, T/C",[27],54.1%
same,"viability, T/C",[28],23.2%
same,"viability, T/C",[29],10.7%
same,"viability, T/C",[30],9.88%
same,"viability, T/C",[31],93.8%
same,"viability, T/C",[32],76.1%
same,"viability, T/C",[33],60.5%
same,"viability, T/C",[34],17.4%
same,"viability, T/C",[35],10.4%
same,"viability, T/C",[36],10.3%
COc1cc2cc(C(=O)CCC(=O)O)sc2cc1OC + COC1C(OC(N)=O)C(O)C(Oc2ccc3c(O)c(NC(=O)c4ccc(O)c(CC=C(C)C)c4)c(=O)oc3c2C)OC1(C)C,IC50,second compound 0.0316 µM,> 10 µM
same,IC50,second compound 0.1 µM,> 10 µM
same,IC50,second compound 0.316 µM,> 10 µM
same,IC50,second compound 1 µM,> 10 µM
same,IC50,second compound 3.16 µM,> 10 µM
same,IC50,second compound 10 µM,> 10 µM
same,"viability, T/C",[1],105%
same,"viability, T/C",[2],94.7%
same,"viability, T/C",[3],108%
same,"viability, T/C",[4],106%
same,"viability, T/C",[5],103%
same,"viability, T/C",[6],60.1%
same,"viability, T/C",[7],103%
same,"viability, T/C",[8],110%
same,"viability, T/C",[9],104%
same,"viability, T/C",[10],105%
same,"viability, T/C",[11],107%
same,"viability, T/C",[12],73.1%
same,"viability, T/C",[13],111%
same,"viability, T/C",[14],101%
same,"viability, T/C",[15],104%
same,"viability, T/C",[16],106%
same,"viability, T/C",[17],101%
same,"viability, T/C",[18],74.2%
same,"viability, T/C",[19],104%
same,"viability, T/C",[20],92.3%
same,"viability, T/C",[21],97.2%
same,"viability, T/C",[22],102%
same,"viability, T/C",[23],105%
same,"viability, T/C",[24],65.1%
same,"viability, T/C",[25],97.4%
same,"viability, T/C",[26],87.6%
same,"viability, T/C",[27],100%
same,"viability, T/C",[28],96.1%
same,"viability, T/C",[29],113%
same,"viability, T/C",[30],61.8%
same,"viability, T/C",[31],86.3%
same,"viability, T/C",[32],75.2%
same,"viability, T/C",[33],101%
same,"viability, T/C",[34],91.4%
same,"viability, T/C",[35],91.4%
same,"viability, T/C",[36],62%
O=C(Nc1ccc(O)c(NS(=O)(=O)c2ccc(F)cc2)c1)c1ccc(-c2ccccc2)cc1 + COC1C(OC(N)=O)C(O)C(Oc2ccc3c(O)c(NC(=O)c4ccc(O)c(CC=C(C)C)c4)c(=O)oc3c2C)OC1(C)C,IC50,second compound 0.0316 µM,> 10 µM
same,IC50,second compound 0.1 µM,> 10 µM
same,IC50,second compound 0.316 µM,> 10 µM
same,IC50,second compound 1 µM,> 10 µM
same,IC50,second compound 3.16 µM,> 10 µM
same,IC50,second compound 10 µM,> 10 µM
same,"viability, T/C",[1],107%
same,"viability, T/C",[2],91.7%
same,"viability, T/C",[3],95.1%
same,"viability, T/C",[4],98.3%
same,"viability, T/C",[5],99.8%
same,"viability, T/C",[6],95.6%
same,"viability, T/C",[7],116%
same,"viability, T/C",[8],97.1%
same,"viability, T/C",[9],101%
same,"viability, T/C",[10],99.3%
same,"viability, T/C",[11],84%
same,"viability, T/C",[12],102%
same,"viability, T/C",[13],104%
same,"viability, T/C",[14],100%
same,"viability, T/C",[15],97.5%
same,"viability, T/C",[16],101%
same,"viability, T/C",[17],93.3%
same,"viability, T/C",[18],101%
same,"viability, T/C",[19],104%
same,"viability, T/C",[20],97.4%
same,"viability, T/C",[21],97.6%
same,"viability, T/C",[22],96.4%
same,"viability, T/C",[23],101%
same,"viability, T/C",[24],94.7%
same,"viability, T/C",[25],93.9%
same,"viability, T/C",[26],92.2%
same,"viability, T/C",[27],93.7%
same,"viability, T/C",[28],90.8%
same,"viability, T/C",[29],107%
same,"viability, T/C",[30],94.2%
same,"viability, T/C",[31],86.2%
same,"viability, T/C",[32],81.1%
same,"viability, T/C",[33],97.8%
same,"viability, T/C",[34],73.7%
same,"viability, T/C",[35],89.3%
same,"viability, T/C",[36],96.5%
COc1cccc2c1C(=O)c1c(O)c3c(c(O)c1C2=O)CC(O)(C(=O)CO)CC3OC1CC(N)C(O)C(C)O1 (stereo not drawn) + Cc1cccc(N(C)C(=O)C2C(O)CCN2c2nc(C)cc(C(F)(F)F)c2C#N)c1,IC50,second compound 0.0316 µM,1.27 µM
same,IC50,second compound 0.1 µM,1.21 µM
same,IC50,second compound 0.316 µM,0.947 µM
same,IC50,second compound 1 µM,1.12 µM
same,IC50,second compound 3.16 µM,0.555 µM
same,IC50,second compound 10 µM,0.186 µM
same,"viability, T/C",[1],96.3%
same,"viability, T/C",[2],88%
same,"viability, T/C",[3],81.4%
same,"viability, T/C",[4],51.8%
same,"viability, T/C",[5],32.3%
same,"viability, T/C",[6],11.7%
same,"viability, T/C",[7],101%
same,"viability, T/C",[8],97.2%
same,"viability, T/C",[9],81.6%
same,"viability, T/C",[10],55.1%
same,"viability, T/C",[11],26.4%
same,"viability, T/C",[12],11.6%
same,"viability, T/C",[13],103%
same,"viability, T/C",[14],92.7%
same,"viability, T/C",[15],84.9%
same,"viability, T/C",[16],45%
same,"viability, T/C",[17],27.2%
same,"viability, T/C",[18],12.9%
same,"viability, T/C",[19],105%
same,"viability, T/C",[20],95.9%
same,"viability, T/C",[21],72.6%
same,"viability, T/C",[22],53.6%
same,"viability, T/C",[23],28.8%
same,"viability, T/C",[24],10.3%
same,"viability, T/C",[25],88.2%
same,"viability, T/C",[26],93.3%
same,"viability, T/C",[27],60.3%
same,"viability, T/C",[28],35.8%
same,"viability, T/C",[29],17.7%
same,"viability, T/C",[30],7.76%
same,"viability, T/C",[31],94.3%
same,"viability, T/C",[32],65.2%
same,"viability, T/C",[33],38.3%
same,"viability, T/C",[34],16.5%
same,"viability, T/C",[35],11.8%
same,"viability, T/C",[36],11.6%

# — PubChem BioAssay AID1963830 (Molecular Pharmacology Branch, DTP, NCI, 2024)
